Measurements published in paper PMC7998589, “A Radiobrominated Tyrosine Kinase Inhibitor for EGFR with L858R/T790M Mutations in Lung Carcinoma” (Pharmaceuticals, 2021).

Key:
[1] = Biodistribution of double tracers in normal mice; type: in vivo; conditions: ddY mice
Protocol: (§1) One month later, ^125I activity was determined.

[2] = set-up: method as in PMID 32599930; conditions: ref [9]; cited from earlier work
[3] = system: H1975 (L858R/T790M double mutations EGFR); assay: Cellular uptake and blocking study, H1975; type: cell-based, human
Protocol: H1975 (1 × 10^5 cells/well), H441 (1 × 10^5 cells/well), and H3255 (2 × 10^5 cells/well) NSCLC cells were cultured in 6 well plates. Cells were incubated in medium with 10% FBS and 100 IU/mL penicillin–streptomycin at 37 °C in a humidified atmosphere with 5% CO2 for 24 h. […] The cells were dissolved by a 1.0 M NaOH aqueous solution (0.5 mL × 2). The cell lysate was transferred into a test tube. The radioactivity of ^77Br was measured by an auto well gamma counter at a 100–600 keV energy range. […] The BCA protein assay kit protocol was used to determine the protein concentration.

[4] = system: H1975 and H441 tumors; assay: Biodistribution of double tracers in tumor-bearing mice; type: in vivo, BALB/c nu/nu mice
Protocol: Six weeks old male ddY mice and four weeks old female BALB/c nu/nu mice were purchased from Japan SLC Inc. (Hamamatsu, Japan). Tumor-bearing mice were prepared by subcutaneous injection of cells suspended in 100 μL medium to the female BALB/c nu/nu mice. H1975 cells (5 × 10^6 cells) were implanted in the right shoulder, and H441 cells (3 × 10^6 cells) were implanted in the left shoulder. The tumor reached palpable size after post-inoculation 12 and 9 days for H1975 and H441, respectively.
as §1

[5] = system: H3255 (EGFR L858R); assay: WST-8 cytotoxicity assay, H3255; type: cell-based; conditions: Homo sapiens, NCI-H3255
Description: (§2) The data were statistically analyzed and presented as mean ± standard deviation (SD).

[6] = system: H1975 (EGFR L858R/T790M); assay: WST-8 cytotoxicity assay, H1975; type: cell-based; conditions: Homo sapiens, NCI-H1975
Description: as §2

[7] = system: H441 (wild-type EGFR); assay: WST-8 cytotoxicity assay, H441; type: cell-based; conditions: Homo sapiens, NCI-H441
Description: as §2

With C=CC(=O)Nc1cc([125I])cc(Nc2nc(Nc3ccc(N4CCN(C(C)=O)CC4)cc3OC)ncc2C(F)(F)F)c1 [[^125I]ICO1686] the “Biodistribution, Blood” value ([1]; 10 min after i.v. injection) was 1.41 % ID/g, the “Biodistribution, Bone” value ([1]; 10 min after i.v. injection) was 0.74 % ID/g and the “Biodistribution, Brain” value ([1]; 10 min after i.v. injection) was 0.08 % ID/g. For the same compound, the “Biodistribution, Heart” value ([1]; 10 min after i.v. injection) was 2.24 % ID/g, the “Biodistribution, Kidney” value ([1]; 10 min after i.v. injection) was 9.66 % ID/g and the “Biodistribution, Large intestine” value ([1]; 10 min after i.v. injection) was 0.94 % ID/g. The “Biodistribution, Liver” value ([1]; 10 min after i.v. injection) was 19.21 % ID/g, the “Biodistribution, Lung” value ([1]; 10 min after i.v. injection) was 3.61 % ID/g and the “Biodistribution, Muscle” value ([1]; 10 min after i.v. injection) was 1.20 % ID/g. The “Biodistribution, Pancreas” value ([1]; 10 min after i.v. injection) was 2.03 % ID/g, the “Biodistribution, Small intestine” value ([1]; 10 min after i.v. injection) was 36.32 % ID/g and the “Biodistribution, Spleen” value ([1]; 10 min after i.v. injection) was 2.73 % ID/g. For the same compound, the “Biodistribution, Stomach” value ([1]; 10 min after i.v. injection) was 2.60 % ID/organ, the “Biodistribution, Blood” value ([1]; 1 h after i.v. injection) was 0.17 % ID/g and the “Biodistribution, Bone” value ([1]; 1 h after i.v. injection) was 0.16 % ID/g. The “Biodistribution, Brain” value ([1]; 1 h after i.v. injection) was 0.01 % ID/g, the “Biodistribution, Heart” value ([1]; 1 h after i.v. injection) was 0.30 % ID/g and the “Biodistribution, Kidney” value ([1]; 1 h after i.v. injection) was 2.40 % ID/g. The “Biodistribution, Large intestine” value ([1]; 1 h after i.v. injection) was 1.65 % ID/g, the “Biodistribution, Liver” value ([1]; 1 h after i.v. injection) was 7.40 % ID/g and the “Biodistribution, Lung” value ([1]; 1 h after i.v. injection) was 0.59 % ID/g. For the same compound, the “Biodistribution, Muscle” value ([1]; 1 h after i.v. injection) was 0.23 % ID/g, the “Biodistribution, Pancreas” value ([1]; 1 h after i.v. injection) was 0.86 % ID/g and the “Biodistribution, Small intestine” value ([1]; 1 h after i.v. injection) was 40.99 % ID/g. For the same compound, the “Biodistribution, Spleen” value ([1]; 1 h after i.v. injection) was 0.55 % ID/g, the “Biodistribution, Stomach” value ([1]; 1 h after i.v. injection) was 1.64 % ID/organ and the “Biodistribution, Blood” value ([1]; 4 h after i.v. injection) was 0.06 % ID/g. For the same compound, the “Biodistribution, Bone” value ([1]; 4 h after i.v. injection) was 0.05 % ID/g, the “Biodistribution, Brain” value ([1]; 4 h after i.v. injection) was 0.01 % ID/g and the “Biodistribution, Heart” value ([1]; 4 h after i.v. injection) was 0.08 % ID/g. For the same compound, the “Biodistribution, Kidney” value ([1]; 4 h after i.v. injection) was 0.75 % ID/g, the “Biodistribution, Large intestine” value ([1]; 4 h after i.v. injection) was 81.54 % ID/g and the “Biodistribution, Liver” value ([1]; 4 h after i.v. injection) was 6.45 % ID/g. For the same compound, the “Biodistribution, Lung” value ([1]; 4 h after i.v. injection) was 0.16 % ID/g, the “Biodistribution, Muscle” value ([1]; 4 h after i.v. injection) was 0.04 % ID/g and the “Biodistribution, Pancreas” value ([1]; 4 h after i.v. injection) was 0.12 % ID/g. The “Biodistribution, Small intestine” value ([1]; 4 h after i.v. injection) was 6.08 % ID/g, the “Biodistribution, Spleen” value ([1]; 4 h after i.v. injection) was 0.20 % ID/g and the “Biodistribution, Stomach” value ([1]; 4 h after i.v. injection) was 0.76 % ID/organ. The “Biodistribution, Blood” value ([1]; 24 h after i.v. injection) was 0.13 % ID/g, the “Biodistribution, Bone” value ([1]; 24 h after i.v. injection) was 0.09 % ID/g and the “Biodistribution, Feces” value ([1]; 24 h after i.v. injection) was 71.54 % ID/organ. For the same compound, the “Biodistribution, Heart” value ([1]; 24 h after i.v. injection) was 0.20 % ID/g, the “Biodistribution, Kidney” value ([1]; 24 h after i.v. injection) was 0.54 % ID/g and the “Biodistribution, Large intestine” value ([1]; 24 h after i.v. injection) was 0.52 % ID/g. For the same compound, the “Biodistribution, Liver” value ([1]; 24 h after i.v. injection) was 1.40 % ID/g, the “Biodistribution, Lung” value ([1]; 24 h after i.v. injection) was 0.14 % ID/g and the “Biodistribution, Muscle” value ([1]; 24 h after i.v. injection) was 0.04 % ID/g. For the same compound, the “Biodistribution, Pancreas” value ([1]; 24 h after i.v. injection) was 0.05 % ID/g, the “Biodistribution, Small intestine” value ([1]; 24 h after i.v. injection) was 0.30 % ID/g and the “Biodistribution, Spleen” value ([1]; 24 h after i.v. injection) was 0.13 % ID/g. The “Biodistribution, Stomach” value ([1]; 24 h after i.v. injection) was 0.05 % ID/organ, the “Biodistribution, Urine” value ([1]; 24 h after i.v. injection) was 1.63 % ID/organ and the eliminated in feces ([1]; 24 h postinjection) was “up to 71%”. For the same compound, the “log P” value [2] was 1.84 ± 0.01, the “accumulation in H1975 versus H3255 and H441” value ([3]; 4 h of incubation) was “significantly higher” and the “reduction of uptake upon pretreatment with CO-1686” value ([3]; H1975) was roughly 60%. For the same compound, the “accumulation of radioactivity with pretreatment with excess CO-1686” value ([3]; H1975, 4 h, CO-1686 100 µM blocking) was 67.7 % dose/mg protein, the “accumulation of radioactivity (cell uptake)” value ([3]; H1975, 4 h incubation) was 151.3 % dose/mg protein and the “effect of gefitinib on uptake” value ([3]; H1975, gefitinib 100 µM blocking) was “not significantly reduced”. The “Biodistribution, Blood” value ([4]; 1 h after i.v. injection) was 0.50 % ID/g, the “Biodistribution, Bone” value ([4]; 1 h after i.v. injection) was 0.42 % ID/g and the “Biodistribution, Brain” value ([4]; 1 h after i.v. injection) was 0.04 % ID/g. For the same compound, the “Biodistribution, H441 tumor” value ([4]; 1 h after i.v. injection) was 0.44 % ID/g, the “Biodistribution, H1975 tumor” value ([4]; 1 h after i.v. injection) was 0.68 % ID/g and the “Biodistribution, Heart” value ([4]; 1 h after i.v. injection) was 0.61 % ID/g. For the same compound, the “Biodistribution, Kidney” value ([4]; 1 h after i.v. injection) was 2.64 % ID/g, the “Biodistribution, Large intestine” value ([4]; 1 h after i.v. injection) was 27.65 % ID/g and the “Biodistribution, Liver” value ([4]; 1 h after i.v. injection) was 30.32 % ID/g. For the same compound, the “Biodistribution, Lung” value ([4]; 1 h after i.v. injection) was 1.62 % ID/g, the “Biodistribution, Muscle” value ([4]; 1 h after i.v. injection) was 0.36 % ID/g and the “Biodistribution, Pancreas” value ([4]; 1 h after i.v. injection) was 2.71 % ID/g. For the same compound, the “Biodistribution, Small intestine” value ([4]; 1 h after i.v. injection) was 86.29 % ID/g, the “Biodistribution, Spleen” value ([4]; 1 h after i.v. injection) was 1.80 % ID/g and the “Biodistribution, Stomach” value ([4]; 1 h after i.v. injection) was 1.49 % ID/organ. The “Biodistribution, Blood” value ([4]; 6 h after i.v. injection) was 0.17 % ID/g, the “Biodistribution, Bone” value ([4]; 6 h after i.v. injection) was 0.22 % ID/g and the “Biodistribution, Brain” value ([4]; 6 h after i.v. injection) was 0.02 % ID/g. The “Biodistribution, H441 tumor” value ([4]; 6 h after i.v. injection) was 0.19 % ID/g, the “Biodistribution, H1975 tumor” value ([4]; 6 h after i.v. injection) was 0.10 % ID/g and the “Biodistribution, Heart” value ([4]; 6 h after i.v. injection) was 0.53 % ID/g. For the same compound, the “Biodistribution, Kidney” value ([4]; 6 h after i.v. injection) was 1.05 % ID/g, the “Biodistribution, Large intestine” value ([4]; 6 h after i.v. injection) was 95.22 % ID/g and the “Biodistribution, Liver” value ([4]; 6 h after i.v. injection) was 10.16 % ID/g. For the same compound, the “Biodistribution, Lung” value ([4]; 6 h after i.v. injection) was 0.37 % ID/g, the “Biodistribution, Muscle” value ([4]; 6 h after i.v. injection) was 0.10 % ID/g and the “Biodistribution, Pancreas” value ([4]; 6 h after i.v. injection) was 0.36 % ID/g. For the same compound, the “Biodistribution, Small intestine” value ([4]; 6 h after i.v. injection) was 11.72 % ID/g, the “Biodistribution, Spleen” value ([4]; 6 h after i.v. injection) was 0.25 % ID/g and the “Biodistribution, Stomach” value ([4]; 6 h after i.v. injection) was 1.17 % ID/organ.

In the case of C=CC(=O)Nc1cc(Br)cc(Nc2nc(Nc3ccc(N4CCN(C(C)=O)CC4)cc3OC)ncc2C(F)(F)F)c1 [compound 9, N-(3-{[2-({4-[4-acetylpiperazin-1-yl]-2-methoxyphenyl}amino)-5-(trifluoromethyl)pyrimidin-4-yl]amino}-5-bromophenyl)acrylamide], the IC50 [5] is reported as 200 ± 10 nM, the IC50 [6] is reported as 180 ± 60 nM and the IC50 [7] is reported as 640 ± 40 nM.
